Measurements: patent US20070259948A1, “Compounds with antifungal properties and process thereof” (priority 2006, published 2007)
≈ marks a conversion by molar mass, not a printed value.

Legend:
Experiment in all cases: Antifungal susceptibility testing (minimum inhibitory concentration), soyabean casein digest broth
Type in all cases: cell-based
[1] = test system: A. niger; details: Aspergillus niger; end points after 48 hours, visually / spectrophotometer; NI till x = no inhibition up to x; read-out: Activity against organisms In μg/ml, A. niger (minimum inhibitory concentration)
Protocol: (§1) In vitro evaluation of antifungal activity can be performed by determining the minimum inhibitory concentration. Anti-fungal susceptibility testing of these anti-fungal compounds was done by conventional method using soyabean casein digest broth. Known anti-fungal agents like Fluconazole and amphotericin-B were used as positive control. End points were determined after 48 hours visually and by using Spectrophotometer wherever necessary. Different dilutions were tried and the set of experiments.

[2] = test system: C. albicans; details: Candida albicans; end points after 48 hours, visually / spectrophotometer; NI till x = no inhibition up to x; read-out: Activity against organisms In μg/ml, C. albicans (minimum inhibitory concentration)
Protocol: as §1

[3] = test system: F. proliferatum; details: Fusarium proliferatum; end points after 48 hours, visually / spectrophotometer; NI till x = no inhibition up to x; read-out: Activity against organisms In μg/ml, F. proliferatum (minimum inhibitory concentration)
Protocol: as §1

SMILES | MIC [1] [µg/mL] | MIC [2] [µg/mL] | MIC [3] [µg/mL]
COc1ccc(C2=CC(COC(=O)c3cc(Br)c(Br)s3)OC2=O)cc1Br (stereo not drawn) [FE, 4-(3-bromo-4-methoxyphenyl)-5-oxo-2,5-dihydrofuran-2-ylmethyl 4,5-dibromothiophene-2-carboxylate] | > 4 | 4 to 8 (≈ 7.05 to 14.1 µM) | > 4
O=C1OC(COC(=O)c2ccsc2)C=C1c1cccc(Cl)c1 (stereo not drawn) [1EB, 4-(3-chlorophenyl)-5-oxo-2,5-dihydrofuran-2-ylmethyl thiophene-3-carboxylate] | 4 (≈ 11.9 µM) | 4 (≈ 11.9 µM) | 2 (≈ 5.97 µM)
O=C1OC(COC(=O)c2cccs2)C=C1c1cccc(Cl)c1 (stereo not drawn) [1DB, 4-(3-chlorophenyl)-5-oxo-2,5-dihydrofuran-2-ylmethyl thiophene-2-carboxylate] | 4 (≈ 11.9 µM) | 2 (≈ 5.97 µM) | 1 (≈ 2.99 µM)
COc1ccc(C2=CC(COC(=O)CCCl)OC2=O)cc1Br (stereo not drawn) [1GE, 4-(3-bromo-4-methoxyphenyl)-5-oxo-2,5-dihydrofuran-2-ylmethyl 3-chloropropionate] | 4 to 8 (≈ 10.3 to 20.5 µM) | 4 to 8 (≈ 10.3 to 20.5 µM) | 8 to 16 (≈ 20.5 to 41.1 µM)
O=C1OC(COC(=O)c2ccccc2)C=C1c1cccc(F)c1 (stereo not drawn) [1AD, 3-fluorophenyl-5-benzoyloxymethyl-2H,5H-furan-2-one] | 1 to 2 (≈ 3.2 to 6.4 µM) | 1 to 2 (≈ 3.2 to 6.4 µM) | 1 to 2 (≈ 3.2 to 6.4 µM)
C=CCC(=O)OCC1C=C(c2cccc(Cl)c2)C(=O)O1 (stereo not drawn) [1CB, 3-chlorophenyl-5-allyloyloxymethyl-2H,5H-furan-2-one] | 8 (≈ 27.3 µM) | 4 (≈ 13.7 µM) | 2 (≈ 6.83 µM)
O=C1OC(COC(=O)c2ccc[nH]2)C=C1c1cccc(Br)c1 (stereo not drawn) [1KC, 4-(3-bromophenyl)-5-oxo-2,5-dihydrofuran-2-ylmethyl pyrrole-2-carboxylate] | 2 to 4 (≈ 5.52 to 11 µM) | 1 to 2 (≈ 2.76 to 5.52 µM) | 1 to 2 (≈ 2.76 to 5.52 µM)
O=C1OC(COC(=O)c2cc(Br)c(Br)s2)C=C1c1ccc(Cl)c(Cl)c1 (stereo not drawn) [1FA, 4-(3,4-dichlorophenyl)-5-oxo-2,5-dihydrofuran-2-ylmethyl 4,5-dibromothiophene-2-carboxylate] | > 4 | > 4 | > 4
COc1ccc(C2=CC(COC(=O)CCCCl)OC2=O)cc1Br (stereo not drawn) [1HE, 4-(3-bromo-4-methoxyphenyl)-5-oxo-2,5-dihydrofuran-2-ylmethyl 4-chlorobutyrate] | > 4 | > 4 | > 4
O=C1OC(COC(=O)c2ccccc2)C=C1c1ccc(Cl)c(Cl)c1 (stereo not drawn) [1AA, 3,4-dichlorophenyl-5-benzoyloxymethyl-2H,5H-furan-2-one] | 2 (≈ 5.51 µM) | 4 (≈ 11 µM) | 1 (≈ 2.75 µM)
COc1ccc(C2=CC(COC(=O)c3cccc(I)c3)OC2=O)cc1Br (stereo not drawn) [1JE, 4-(3-bromo-4-methoxyphenyl)-5-oxo-2,5-dihydrofuran-2-ylmethyl 3-iodobenzoate] | > 2 | > 2 | > 2
COc1ccc(C2=CC(COC(=O)CCCCCl)OC2=O)cc1Br (stereo not drawn) [1IE, 4-(3-bromo-4-methoxyphenyl)-5-oxo-2,5-dihydrofuran-2-ylmethyl 5-chlorovalerate] | > 8 | > 8 | > 8
C=CCC(=O)OCC1C=C(c2ccc(OC)c(Br)c2)C(=O)O1 (stereo not drawn) [1CE, 3-bromo-4-methoxyphenyl-5-allyloyloxymethyl-2H,5H-furan-2-one] | > 8 | 2 to 4 (≈ 5.45 to 10.9 µM) | > 8
C=CCC(=O)OCC1C=C(c2cccc(Br)c2)C(=O)O1 (stereo not drawn) [1CC, 3-bromophenyl-5-allyloyloxymethyl-2H,5H-furan-2-one] | 8 (≈ 23.7 µM) | 4 (≈ 11.9 µM) | 2 (≈ 5.93 µM)
COc1ccc(C2=CC(COC(=O)c3ccccc3)OC2=O)cc1Br (stereo not drawn) [1AE, 3-bromo-4-methoxyphenyl-5-benzoyloxymethyl-2H,5H-furan-2-one] | > 2 | > 2 | > 2
O=C1OC(COC(=O)c2cc(Br)c(Br)s2)C=C1c1cccc(Br)c1 (stereo not drawn) [1FC, 4-(3-bromophenyl)-5-oxo-2,5-dihydrofuran-2-ylmethyl 4,5-dibromothiophene-2-carboxylate] | 2 to 4 (≈ 3.72 to 7.45 µM) | 1 to 2 (≈ 1.86 to 3.72 µM) | 1 to 2 (≈ 1.86 to 3.72 µM)
COc1ccc(C2=CC(COC(=O)c3ccsc3)OC2=O)cc1Br (stereo not drawn) [1EE, 4-(3-bromo-4-methoxyphenyl)-5-oxo-2,5-dihydrofuran-2-ylmethyl thiophene-3-carboxylate] | > 2 | > 2 | > 2
O=C1OC(COC(=O)c2ccccc2)C=C1c1cccc(Cl)c1 (stereo not drawn) [1AB, 3-chlorophenyl-5-benzoyloxymethyl-2H,5H-furan-2-one] | 2 (≈ 6.08 µM) | 2 (≈ 6.08 µM) | 0.5 (≈ 1.52 µM)
COc1ccc(C2=CC(COC(C)=O)OC2=O)cc1Br (stereo not drawn) [1BE, 3-bromo-4-methoxyphenyl-5-acetoxymethyl-2H,5H-furan-2-one] | 4 to 8 (≈ 11.7 to 23.4 µM) | 2 to 4 (≈ 5.86 to 11.7 µM) | 8 to 16 (≈ 23.4 to 46.9 µM)
